In brackets after ≈: the same amount, converted by molar mass. Several values for one entry are separate records, joined by “and”; a condition that tells them apart may be missing. Identical values can stand only once.
Tests used:
Type in all cases: physicochemical
[1] = Equilibrium solubility by HPLC, Form C, ambient temperature; conditions: for solubility: thermodynamic from solid
Experimental: […] (as a part of feasibility assessment of liquid dosage form in formulation development and dissolution method development), a number of […] […] The equilibrated suspensions were isolated by centrifuge and the filtrates were injected into HPLC to determine equilibrium solubility of the API in each solvent system.

[2] = Amorphous form: mDSC glass transition and TGA; conditions: preliminary TGA data
Experimental: To assess the feasibility of solid dispersion approach in formulation development, the glass transition temperature of the material was determined by modulated differential scanning calorimetry (mDSC). […] Therefore, as preparing an in-situ amorphous material in DSC pan, the end temperature should not ramp beyond 260° C. The amorphous samples were generated by heating the raw APIs from 25 to 250° C., followed by a rapid cooling to −60° C. The glass transition temperature (Tg) was measured by a slow heating of the generated amorphous samples from −60° C. to 250° C. The Tg for in-situ generated amorphous material from C and Form A was 93° C. and 97° C., respectively. The discrepancy in the two Tg values may simply due to the variation of water content in the samples or chemical purity.

[3] = Estimated solubility by solvent aliquot addition, visual inspection; conditions: thermodynamic from solid
Experimental: Solubilities of Compound 1 in a few solvents were estimated. The experiments were carried out by adding the test solvent in aliquots to weighed portions of solid. Whether dissolution had occurred was judged by visual inspection after addition of each solvent aliquot. Solubility numbers were calculated by dividing the total amount of solvent used to dissolve the sample by the weight of the sample. The actual solubilities may be greater than the numbers calculated because of the use of solvent aliquots that were too large or because of slow dissolution rates. […] The solubility number is expressed as “greater than or equal to” if dissolution occurred on addition of the first solvent aliquot.

## CC(=O)N1CCc2c(C(=O)N3CCC(c4ccc(F)c(F)c4C(F)(F)F)CC3)n[nH]c2C1 [Compound 1, 1-(3-(4-(3,4-difluoro-2-(trifluoromethyl)phenyl)piperidine-1-carbonyl)-1,4,5,7-tetrahydro-6H-pyrazolo[3,4-c]pyridin-6-yl)ethan-1-one]
[1]; Canola Oil, oil or lipid, Canola Oil, read-out: Solubility by HPLC
  solubility: 31 µg/mL (≈ 67.9 µM)
[1]; Capmul MCM, EP, oil or lipid, Capmul MCM, EP, read-out: Solubility by HPLC
  solubility: 3900 µg/mL (≈ 8540 µM)
[1]; Capmul MCM, NF, oil or lipid, Capmul MCM, NF, read-out: Solubility by HPLC
  solubility: 4400 µg/mL (≈ 9640 µM)
[1]; Captex 300, EP/NF, oil or lipid, Captex 300, EP/NF, read-out: Solubility by HPLC
  solubility: 64 µg/mL (≈ 140 µM)
[1]; Captex 355, EP/NF, oil or lipid, Captex 355, EP/NF, read-out: Solubility by HPLC
  solubility: 49 µg/mL (≈ 107 µM)
[1]; Castor Oil, oil or lipid, Castor Oil, read-out: Solubility by HPLC
  solubility: 990 µg/mL (≈ 2170 µM)
[1]; Corn Oil, oil or lipid, Corn Oil, read-out: Solubility by HPLC
  solubility: 31 µg/mL (≈ 67.9 µM)
[1]; FaSSIF, pH 4.96, fassif, FaSSIF, Final pH: 4.96, read-out: Solubility by HPLC
  solubility: 39 µg/mL (≈ 85.4 µM)
[1]; FaSSIF, pH 4.99, fassif, FaSSIF, Final pH: 4.99, read-out: Solubility by HPLC
  solubility: 47 µg/mL (≈ 103 µM)
[1]; FaSSIF, pH 6.77, fassif, FaSSIF, Final pH: 6.77, read-out: Solubility by HPLC
  solubility: 5.1 µg/mL (≈ 11.2 µM)
[1]; FaSSIF, pH 6.78, fassif, FaSSIF, Final pH: 6.78, read-out: Solubility by HPLC
  solubility: 3.2 µg/mL (≈ 7.01 µM)
[1]; Gelucire 44/14 1 mg/mL (500× cmc), aqueous with cosolvent or surfactant or cyclodextrin, Gelucire 44/14, 1 mg/mL (500× cmc), read-out: Solubility by HPLC
  solubility: 0.8 µg/mL (≈ 1.75 µM)
[1]; Kolliphor HS-15, 35 °C, organic solvent or mixture, Kolliphor HS-15, Stirred at 35° C., read-out: Solubility by HPLC
  solubility: 2800 µg/mL (≈ 6130 µM)
[1]; Kolliphor P188 0.4 mM (3.2× cmc), aqueous with cosolvent or surfactant or cyclodextrin, Kolliphor P188, 0.4 mM (3.2× cmc), read-out: Solubility by HPLC
  solubility: 1.6 µg/mL (≈ 3.51 µM)
[1]; Kolliphor P188 4 mM (32× cmc), aqueous with cosolvent or surfactant or cyclodextrin, Kolliphor P188, 4 mM (32× cmc), read-out: Solubility by HPLC
  solubility: 3.1 µg/mL (≈ 6.79 µM)
[1]; Labrafil M1944CS, oil or lipid, Labrafil M1944CS, read-out: Solubility by HPLC
  solubility: 280 µg/mL (≈ 613 µM)
[1]; Labrasol, oil or lipid, Labrasol, read-out: Solubility by HPLC
  solubility: 1700 µg/mL (≈ 3720 µM)
[1]; Lecithin 61 mg/mL (100× cmc), aqueous with cosolvent or surfactant or cyclodextrin, Lecithin, 61 mg/mL (100× cmc), read-out: Solubility by HPLC
  solubility: 53 µg/mL (≈ 116 µM)
[1]; Miglyol 810, oil or lipid, Miglyol 810, read-out: Solubility by HPLC
  solubility: 53 µg/mL (≈ 116 µM)
[1]; Miglyol 812, oil or lipid, Miglyol 812, read-out: Solubility by HPLC
  solubility: 52 µg/mL (≈ 114 µM)
[1]; Oleic Acid, oil or lipid, Oleic Acid, read-out: Solubility by HPLC
  solubility: 390 µg/mL (≈ 854 µM)
[1]; PEG 400, organic solvent or mixture, PEG 400, read-out: Solubility by HPLC
  solubility: 2000 µg/mL (≈ 4380 µM)
[1]; Peceol, oil or lipid, Peceol, read-out: Solubility by HPLC
  solubility: 1300 µg/mL (≈ 2850 µM)
[1]; Plurol Oleique CC 497, oil or lipid, Plurol Oleique CC 497, read-out: Solubility by HPLC
  solubility: 1200 µg/mL (≈ 2630 µM)
[1]; Sodium Lauryl Sulfate 8.2 mM (cmc), aqueous with cosolvent or surfactant or cyclodextrin, Sodium Lauryl Sulfate, 8.2 mM (cmc), read-out: Solubility by HPLC
  solubility: 150 µg/mL (≈ 329 µM)
[1]; Sodium Lauryl Sulfate 41 mM (5× cmc), aqueous with cosolvent or surfactant or cyclodextrin, Sodium Lauryl Sulfate, 41 mM (5× cmc), read-out: Solubility by HPLC
  solubility: 1600 µg/mL (≈ 3510 µM)
[1]; Sodium Lauryl Sulfate 82 mM (10× cmc), aqueous with cosolvent or surfactant or cyclodextrin, Sodium Lauryl Sulfate, 82 mM (10× cmc), read-out: Solubility by HPLC
  solubility: 2400 µg/mL (≈ 5260 µM)
[1]; Sodium Lauryl Sulfate, 0.82M (100× cmc)
  Solubility by HPLC: 17000 µg/mL and 19000 µg/mL
[1]; Soybean Oil, oil or lipid, Soybean Oil, read-out: Solubility by HPLC
  solubility: 30 µg/mL (≈ 65.7 µM)
[1]; Transcutol HP, organic solvent or mixture, Transcutol HP, read-out: Solubility by HPLC
  solubility: 4700 µg/mL (≈ 10300 µM)
[1]; Triacetic, organic solvent or mixture, Triacetic, read-out: Solubility by HPLC
  solubility: 430 µg/mL (≈ 942 µM)
[1]; Tween 80, 1.2 mM (100× CMC), aqueous with cosolvent or surfactant or cyclodextrin, Tween 80, 1.2 mM (100× cmc), read-out: Solubility by HPLC
  solubility: 560 µg/mL (≈ 1230 µM)
[1]; Vitamin E TPGS 0.2 wt % (10× cmc), aqueous with cosolvent or surfactant or cyclodextrin, Vitamin E TPGS, 0.2 wt % (10× cmc), read-out: Solubility by HPLC
  solubility: 20 µg/mL (≈ 43.8 µM)
[1]; Vitamin E TPGS 2 wt % (100× cmc), aqueous with cosolvent or surfactant or cyclodextrin, Vitamin E TPGS, 2 wt % (100× cmc), read-out: Solubility by HPLC
  solubility: 40 µg/mL (≈ 87.6 µM)
[1]; Water, pH 8.99, water, Water, Final pH: 8.99, read-out: Solubility by HPLC
  solubility: 1 µg/mL (≈ 2.19 µM)
[1]; ethanol, organic solvent or mixture, Ethanol, read-out: Solubility by HPLC
  solubility: 3100 µg/mL (≈ 6790 µM)
[1]; organic solvent or mixture, EtOH, PEG 400, Propylene glycol, Capmul MCM NF, Kolliphor EL, Capmul MCM EP, Plurol Oleique CC 497, Peceol, Labrasol, SLS at 5× and 10×CMC, Transcutol HP, read-out: solubility of the API
  solubility: 1000 to 5000 µg/mL (≈ 2190 to 11000 µM)
[1]; pH 1.0 buffer, pH 1, simulated gastric fluid, pH 1.0 buffer, Final pH: 0.89, read-out: Solubility by HPLC
  solubility: 1.2 µg/mL (≈ 2.63 µM)
[1]; pH 4.5 buffer, pH 4.5, aqueous buffer, pH 4.5 buffer, Final pH: 4.80, read-out: Solubility by HPLC
  solubility: 1.1 µg/mL (≈ 2.41 µM)
[1]; pH 6.8 buffer, pH 6.8, aqueous buffer, pH 6.8 buffer, Final pH: 6.50, read-out: Solubility by HPLC
  solubility: 0.8 µg/mL (≈ 1.75 µM)
[1]; propylene glycol, organic solvent or mixture, Propylene Glycol, read-out: Solubility by HPLC
  solubility: 2600 µg/mL (≈ 5700 µM)
[1]; sodium lauryl sulfate solution, 0.82 M (100× CMC), aqueous with cosolvent or surfactant or cyclodextrin, Sodium Lauryl Sulfate, 0.82M (100× cmc), read-out: Solubility by HPLC
  solubility: > 10000 µg/mL
[1]; sulfobutylether β-cyclodextrin, 40 wt %, aqueous with cosolvent or surfactant or cyclodextrin, Sulfobutylether β-CD, 40 wt %, read-out: Solubility by HPLC
  solubility: 750 µg/mL (≈ 1640 µM)
[2]
  temperature at which continuous weight loss due to decomposition started (TGA): 260 °C
[3]; 2-propanol, organic solvent or mixture
  solubility: 4000 µg/mL (≈ 8760 µM)
[3]; acetone, organic solvent or mixture
  solubility: 2000 µg/mL (≈ 4380 µM)
[3]; acetonitrile, organic solvent or mixture
  solubility: < 1000 µg/mL
[3]; dichloromethane, organic solvent or mixture
  solubility: 2000 µg/mL (≈ 4380 µM)
[3]; dimethylformamide, organic solvent or mixture
  solubility: 15000 µg/mL (≈ 32900 µM)
[3]; ethanol (absolute), organic solvent or mixture
  solubility: 6000 µg/mL (≈ 13100 µM)
[3]; ethyl acetate, organic solvent or mixture
  solubility: 1000 µg/mL (≈ 2190 µM)
[3]; ethyl ether, organic solvent or mixture
  solubility: < 1000 µg/mL
[3]; methanol, organic solvent or mixture
  solubility: 6000 µg/mL (≈ 13100 µM)
[3]; tetrahydrofuran, organic solvent or mixture
  solubility: 6000 µg/mL (≈ 13100 µM)
[3]; water
  solubility: < 1000 µg/mL
